≈ marks a conversion by molar mass, not a printed value. Where only a bound is given, the exact number is not on record here.

Data on 50 molecules can be found in PubChem BioAssay AID1996.

For this series the following is noted: buffer; pH 7.4; 200.0 µM.
A word on the solubility (kinetic): it is solubility judged after dilution from a stock solution rather than from solid. The molecule `OCc1ccccc1OCCCOc1cccc2cccnc12` registered a solubility (kinetic) greater than 46.4 µg/mL.

`CCc1oc(C(=O)OC)cc1CSC(=N)N.Cl`: the kinetic solubility came out at 41.4 µg/mL.

`Cc1cnc(N2C(=O)c3ccc([N+](=O)[O-])cc3C2=O)s1` yielded a kinetic solubility of 28 µg/mL (≈ 96.8 µM).

`COc1ccc(C(=O)NCC(=O)OCC(=O)NCc2ccc3c(c2)OCO3)cc1`: the solubility (kinetic) is greater than 60.1 µg/mL.

Molecule `CC1(C)NC(=O)N(CC(=O)N2CCC(Cc3ccccc3)CC2)C1=O` yielded a solubility (kinetic) of 50.1 µg/mL (≈ 146 µM).

As for `COc1cccc(-n2cn[nH]c2=S)c1`, the kinetic solubility was greater than 31.1 µg/mL.

Consider `Cc1ccc(NC(=O)CCCc2c[nH]c3ccccc23)nc1`, for which the solubility (kinetic) is 3.8 µg/mL (≈ 13 µM).

Consider `Cl.Nc1nc2ccccc2n1C(=O)c1cccs1`, for which the kinetic solubility is 2 µg/mL.

In turn, `COc1ccc(/C=C/C(=O)Nc2cccnc2Cl)cc1` gave a kinetic solubility of 8.9 µg/mL (≈ 30.8 µM).

Turning to `Cn1cc(CCC(=O)NCc2cccc(Cl)c2)c2ccccc21`, the solubility (kinetic) was determined as 9.9 µg/mL (≈ 30.3 µM).

`CC(C)CCC(C(=O)O)C(C)CC(=O)NNC(=O)c1ccco1` (stereo not given) came in with a kinetic solubility greater than 48.7 µg/mL.

`COc1ccc(CCN=C(N)NS(=O)(=O)c2ccc(C)c(C)c2)cc1OC` came in with a solubility (kinetic) greater than 58.7 µg/mL.

Consider `Cc1ccc(CN(Cc2ccco2)C(=S)Nc2ccccc2C)cc1`, for which the kinetic solubility came out at 0.4 µg/mL (≈ 1.14 µM).

With `N=c1c2c3c(sc2ncn1N)CCCC3`, the solubility (kinetic) is greater than 33 µg/mL.

Molecule `O=C(O)c1c2c(nc3ccccc13)/C(=C/c1ccc(O)cc1)CCC2` displayed a solubility (kinetic) greater than 49.7 µg/mL.

`COc1ccc(C2(c3ccc(OC)cc3)NC(=O)N(CC(=O)NC3CCS(=O)(=O)C3)C2=O)cc1` (stereo not given) came in with a solubility (kinetic) greater than 73.1 µg/mL.

Molecule `COC(=O)c1cc(C(=O)NC(C)(C)CC(C)(C)C)cc([N+](=O)[O-])c1` registered a kinetic solubility of 17.8 µg/mL (≈ 52.9 µM).

As for `CC(=O)Oc1ccc2nc(/C=C/c3ccccc3)oc(=O)c2c1`, the kinetic solubility stood at 0.9 µg/mL (≈ 2.93 µM). Against the preceding molecule, the solubility kinetic is about 20-fold lower.

`Cc1ccc(-c2nc3ccccc3c(=O)o2)cc1` displayed a kinetic solubility of 1.2 µg/mL (≈ 5.06 µM). The solubility kinetic values of the last two molecules are within 1.5-fold of each other.

Take `Cc1ccc(NC(=O)C2CCCN2C(=O)OCc2ccccc2)cc1C` (stereo not given): the kinetic solubility turned out to be 11.5 µg/mL (≈ 32.6 µM).

`COc1ccc(C(=O)N(Cc2ccccc2)c2cccc(C)c2)cc1` displayed a kinetic solubility of 15.8 µg/mL (≈ 47.7 µM).

In the case of `O=C(CS(=O)(=O)c1ccccc1)NCc1ccc(Cl)cc1`, the kinetic solubility was found to be 2.7 µg/mL (≈ 8.34 µM).

For `COc1ccc(OCC(O)CNC(=O)Nc2ccccc2)cc1` (stereo not given), the kinetic solubility is 26.9 µg/mL (≈ 85 µM).

Turning to `O=C(O)CCn1c(SCCOc2ccccc2F)nc2ccccc21`, the solubility (kinetic) was greater than 54.1 µg/mL.

Molecule `O=C(/C=C/c1ccc(F)cc1)NCCCn1ccnc1` displayed a kinetic solubility greater than 41 µg/mL.

`Cc1ccc(C)c(SCC(=O)NC2CCS(=O)(=O)C2)c1` (stereo not given): the kinetic solubility was greater than 47 µg/mL.

The molecule `O=C1/C(=C/c2ccccc2)SC(=S)N1C1CCS(=O)(=O)C1` (stereo not given) came in with a solubility (kinetic) of 0.9 µg/mL (≈ 2.65 µM).

Regarding `COc1ccc(N2CCN(C(=O)Cc3ccc(C)cc3)CC2)cc1`, the kinetic solubility came to 43.9 µg/mL (≈ 135 µM). Compared with the last molecule, the solubility kinetic is about 49-fold higher.

For the molecule `c1ccc(P(c2ccccn2)c2ccccn2)cc1`, the solubility (kinetic) is greater than 39.6 µg/mL.

Turning to `CCC(=O)N(C(=O)CC)N1CCN(c2ccncc2S(=O)(=O)N2CCCCC2)CC1`, the solubility (kinetic) was greater than 65.6 µg/mL.

As for `COc1ccc(C)cc1NC(=O)CCCN1C(=O)NC(C)(C)C1=O`, the solubility (kinetic) is greater than 50 µg/mL.

In turn, `CC(C)c1ccc(C(CC(=O)O)N2Cc3ccccc3C2=O)cc1` (stereo not given) had a kinetic solubility greater than 48.5 µg/mL.

For the molecule `CCN(CC)CCNC(=O)C(=O)Nc1ccc(C(=O)OC)cc1`, the solubility (kinetic) was greater than 48.2 µg/mL.

Take `Cc1ccc(/C=C/C(=O)OCC(=O)Nc2cccnc2Cl)o1`: the solubility (kinetic) is 11.8 µg/mL (≈ 36.8 µM).

`C(#CC12CC3CC(CC(C3)C1)C2)CN1CCOCC1` registered a solubility (kinetic) of 17.8 µg/mL (≈ 68.6 µM).

`N/C(=N\OC(=O)c1ccc([N+](=O)[O-])cc1)c1ccccn1` registered a solubility (kinetic) of 3.2 µg/mL (≈ 11.2 µM).

Turning to `CCOC(=O)c1cc(NC(=O)c2cccs2)ccc1N1CCOCC1`, the solubility (kinetic) was 14.8 µg/mL (≈ 41.1 µM).

`O=C(COc1ccccc1/C=C1\SC(=S)NC1=O)Nc1ccc(F)cc1` showed a kinetic solubility of 3 µg/mL (≈ 7.72 µM).

Molecule `O=C(Cc1ccccc1[N+](=O)[O-])OCN1C(=O)c2ccccc2C1=O` yielded a solubility (kinetic) of 13.7 µg/mL (≈ 40.3 µM).

In turn, `CC(Cl)C(=O)Nc1cc(C(C)(C)C)nn1-c1ccccc1` (stereo not given) came in with a kinetic solubility greater than 45.9 µg/mL.

`CC(=O)c1cc(CN2CCN(CCC(C)C)C(CCO)C2)cs1` (stereo not given) displayed a kinetic solubility greater than 50.8 µg/mL.

Molecule `O=C(Nc1ccc(Cl)c(S(=O)(=O)N2CCCC2)c1)c1cc(=O)[nH]c2ccccc12` came in with a solubility (kinetic) of 14.5 µg/mL (≈ 33.6 µM).

Turning to `CCOc1cc(C2NC(=O)c3ccccc3O2)ccc1OC(C)C` (stereo not given), the solubility (kinetic) amounted to 14.1 µg/mL (≈ 43.1 µM).

In the case of `O=C(CCC(=O)c1cccs1)NCc1ccncc1`, the kinetic solubility was greater than 41.2 µg/mL.

Consider `O=C(CN1C(=O)NC(Cc2c[nH]c3ccccc23)C1=O)Nc1ccccc1C(F)(F)F` (stereo not given), for which the solubility (kinetic) was greater than 64.6 µg/mL.

The molecule `CC1CCCC(C)N1C(=O)c1cc(-c2ccco2)on1` (stereo not given) showed a kinetic solubility greater than 41.1 µg/mL.

For `COc1ccc(C2=CSC3=NCCN23)cc1Cl`, the kinetic solubility stood at 38.4 µg/mL (≈ 144 µM).

The molecule `O=C(O)c1cccc(Nc2ccc([N+](=O)[O-])c3nonc23)c1` showed a kinetic solubility greater than 45 µg/mL.

In turn, `COc1cccc(CN2CC=C(c3ccc(F)cc3)CC2)c1` came in with a kinetic solubility of 10.3 µg/mL (≈ 34.6 µM).

Turning to `COc1ccc(-c2cnc3n2CCCCC3)cc1`, the kinetic solubility was greater than 36.3 µg/mL.
